This note sets out measurements from ChEMBL document CHEMBL4699400, “Discovery of a novel kinase hinge binder fragment by dynamic undocking” (RSC Med Chem, 2020).

Activity calls are given as the source filed them. The calls are words filed in the database; no cut-off is given here.

The target in test [1] is T1, Maternal embryonic leucine zipper kinase (Homo sapiens, UniProt Q14680). Briefly: Displacement of kinase tracer 236 from human N-terminal His-tagged MELK (1 to 337 residues) expressed in Escherichia coli BL21 pLysS by microscale thermophoresis assay.
Target sequence in this assay (Q14680 whole entry, the tested form may be a part): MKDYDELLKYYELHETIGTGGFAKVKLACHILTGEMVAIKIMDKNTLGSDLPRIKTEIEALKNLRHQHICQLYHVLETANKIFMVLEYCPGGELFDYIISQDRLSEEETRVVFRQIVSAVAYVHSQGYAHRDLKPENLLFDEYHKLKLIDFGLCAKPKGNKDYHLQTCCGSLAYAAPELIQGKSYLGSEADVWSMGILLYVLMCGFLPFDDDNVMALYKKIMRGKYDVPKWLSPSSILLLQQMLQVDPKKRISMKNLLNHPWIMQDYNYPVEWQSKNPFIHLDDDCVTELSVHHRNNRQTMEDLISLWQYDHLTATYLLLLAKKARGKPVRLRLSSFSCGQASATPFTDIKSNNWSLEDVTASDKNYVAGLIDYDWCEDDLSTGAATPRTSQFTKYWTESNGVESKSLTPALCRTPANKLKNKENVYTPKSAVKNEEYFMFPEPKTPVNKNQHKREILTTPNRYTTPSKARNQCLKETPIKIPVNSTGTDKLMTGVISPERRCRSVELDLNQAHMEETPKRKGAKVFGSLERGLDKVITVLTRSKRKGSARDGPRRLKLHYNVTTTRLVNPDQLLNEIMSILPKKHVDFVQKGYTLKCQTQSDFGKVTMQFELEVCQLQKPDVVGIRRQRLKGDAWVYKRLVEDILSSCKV
Test [2] has as its target T1, Maternal embryonic leucine zipper kinase. Briefly: Binding affinity to human N-terminal His-tagged MELK (1 to 337 residues) expressed in Escherichia coli BL21 pLysS at 50 uM by STD-NMR analysis.
Target sequence in this assay (Q14680 whole entry, looked up, the tested form may be a part): as the sequence (Q14680 whole entry, the tested form may be a part) above

What is called EC50 is the midpoint of the concentration-response curve. Low readings indicate a more potent agent, high ones a less potent agent. For orientation: Ki means a dissociation constant, usually derived from enzyme kinetics or from competition with a known ligand. In the case of `Nc1cccc2cc[nH]c(=O)c12`, in test [1], the EC50 amounted to 21.1 µM and the Ki is 5.47 µM. In addition, in test [2], the result was Active.
